Reference: publication PMC3609026 (Cancer, 2011)
Read-outs that look alike come from different tables or passages of the source.

Legend:
[1] = assay type: in vivo, human; details: through cycles 1 and 2, combination treatment
[2] = Pharmacokinetics: everolimus blood levels, LC/MS, noncompartmental analysis; assay type: in vivo, human; details: through cycles 1 and 2, combination treatment
[3] = tested on: advanced non-clear cell RCC; details: single agent, 23 patients with advanced non-clear cell RCC; cited from earlier work

For `CCNCCNC(=O)c1c(C)[nH]c(/C=C2\C(=O)Nc3ccc(F)cc32)c1C` [N-desethyl sunitinib], which accumulation [1] is on record?
The accumulation was “No unexpected accumulation”.

With `CO[C@H]1C[C@@H]2CC[C@@H](C)[C@@](O)(O2)C(=O)C(=O)N2CCCC[C@H]2C(=O)O[C@H]([C@H](C)C[C@@H]2CC[C@@H](OCCO)[C@H](OC)C2)CC(=O)[C@H](C)/C=C(\C)[C@@H](O)[C@@H](OC)C(=O)[C@H](C)C[C@H](C)/C=C/C=C/C=C/1C` [everolimus] as the compound, how does the accumulation [2] read?
Its accumulation is “No unexpected accumulation”.

With `CCN(CC)CCNC(=O)c1c(C)[nH]c(/C=C2\C(=O)Nc3ccc(F)cc32)c1C` [sunitinib] as the compound, how does the “median PFS” value [3] read?
The value was 5.5 months.

What about the responses [3] of the same compound?
Its responses is “no responses”.
